{"source": "patent US11638424B2", "about": "“Mosquito attractant formulations and uses thereof” (priority 2017, dated 2023)", "key": {"RBCs [1]": {"test_system": "RBCs", "assay": "Volatile collection (SPME) and GC-MS analysis of RBC headspace", "assay_type": "cell-based, Human", "settings": "10 μM HMBPP, FIGS. 2C and D", "method": "(§1) RBCs (1 ml) were transferred to 4 ml glass vials closed with auto-sampler screw caps, and equilibrated in a thermostat at 38° C. for 15 min. Then, 2.5 μl of HMBPP or Nanopure water were added to the RBCs samples (final concentration: 10 μM HMBPP per sample). Volatiles were collected from the headspace using solid phase micro-extraction (SPME; Supelco, Bellmonte, Pa., USA) (M. J. Yang, el al., J. Chem. Educ., 74, 1130-1132 (1997) and A. K. Borg-Karlson and R. Mozuraitis, Naturforsch., C. 51, 599-602 (1996)). […] Electron ionisation mass spectra were determined at 70 eV with the ion source kept at 230° C. and mass spectra were obtained at mass to charge ratio (m/z) 29-400. […] A similar protocol was used for the quantification of CO2, with the mass spectral data and GC retention times being compared with emission from frozen CO2. The relative amounts of CO2 in arbitrary units were determined from the areas of the respective chromatogram peaks using single ion display mode at m/z 44±0.5 Da. The amounts of identified compounds were quantified by the use of extracted ion chromatograms, since they are very minute. […] The estimations were based on the very same quantifications given in ‘arbitrary area units’. […]"}, "A. gambiae sensu lato": {"test_system": "A. gambiae sensu lato", "assay": "Dual choice attraction bioassay (Y-tube olfactometer)", "assay_type": "in vivo", "settings": "FIG. 1A", "method": "Mosquitoes used in this study were from the laboratory colony of A. gambiae sensu lato (Keele line, University of Glasgow), which was produced by balanced interbreeding of four A. gambiae s.s. strains (H. Hurd, et al. Evolution, 59, 2560-2572 (2005)). Larvae were reared under standard insectary conditions (27±1° C., 70% humidity, 12 h light: 12 h dark cycle) and fed on TetraMin fish flakes (Tetra ltd., Germany). Pupae were transferred into holding cages for emergence. Emerged adults were fed ad libitum on 5% glucose solution, supplemented with 0.05% (w/v) 4-aminobenzoic acid (PABA, Sigma-Aldrich), through soaked filters on top of the 2 ml tubes and with soaked filter pads inside cages. Red blood cells (RBCs) were washed with Roswell Park Memorial Institute (RPMI) medium and stored in RPMI at 50% haematocrit at 4° C. until use. To measure the effect of HMBPP on mosquito fitness, RBCs stored in RPMI were centrifuged at 2500×g for 5 min followed by replacement of the medium with AB serum for a final haematocrit of 40%. HMBPP (stock concentration at 4 mM in Nanopure water, stored at −80° C.) was diluted to 10 μM in 1 ml RBC suspension, and the corresponding volume of Nanopure water was added to the control RBCs. All experiments were, unless otherwise stated, conducted on 5-7 days post-emergence female mosquitoes maintained in separated cages (approximately 210 individuals per cohort) and fed RBCs either with or without HMBPP for 30 min. All experiments were performed in triplicates.\nInitial experiments were performed using a Y-tube olfactometer (length of the central cylinder and two arms: 25/15/15 cm respectively, inner diameter: 5 cm; see FIG. 1a). For each experiment, 180 female mosquitoes were individually placed in a release chamber and flown one by one. Females flew towards the upwind end (airflow 3 L min^−1) and entered one of two trapping chambers through which odour released from nearby membrane feeders passed (5 cm distance to each trapping chamber). Three experiments were conducted. In the first experiment, the membrane feeders were loaded with RBCs with or without HMBPP, while in the second they were loaded with serum with or without HMBPP. The third experiment was performed with a 5% glucose with 0.05% PABA solution with or without HMBPP. To control for possible spatial effects, the location of treatment at each olfactometer arm was switched every 30 minutes (˜15 mosquitoes flied one by one in each 30 minutes). Each replacement (feeder rotation with fresh RBCs) was counted as an experimental replicate (experimental block). Mosquitoes reaching any of the trapping chambers were considered to have made a choice. Each experiment was repeated six times with in total 180 mosquitoes per treatment."}, "RBCs [2]": {"test_system": "RBCs", "assay": "CO2 production of RBCs (GC-MS and quantitative respirometry, IRGA)", "assay_type": "cell-based, Human", "settings": "10 μM HMBPP, FIG. 2B", "method": "as §1"}}, "data": [{"smiles": "C/C(=C\\COP(=O)(O)OP(=O)(O)O)CO", "note": "[HMBPP, (E)-4-hydroxy-3-methyl-but-2-enyl pyrophosphate]", "values": [{"measurement": "increase in aldehydes (C8-C10:al) in headspace of hRBCs compared to RBCs", "setting": "RBCs [1]", "value": "1.7-to-5.2 fold"}, {"measurement": "increase in monoterpenes (α- and ß-pinene, limonene) in headspace of hRBCs compared to RBCs", "setting": "RBCs [1]", "value": "1.2-to-1.6 fold"}, {"measurement": "host-seeking mosquitoes that chose HMBPP-supplemented RBCs (hRBCs) over RBCs", "setting": "A. gambiae sensu lato; RBCs with 10 μM HMBPP vs RBCs", "value": 95, "unit": "%"}, {"measurement": "attraction to HMBPP-supplemented glucose solution", "setting": "A. gambiae sensu lato; glucose solution (5%) containing PABA 0.05%, with vs without HMBPP", "value": "did not, however, increase attraction"}, {"measurement": "attraction to HMBPP-supplemented serum", "setting": "A. gambiae sensu lato; serum with vs without HMBPP", "value": "did not, however, increase attraction"}, {"measurement": "increase of the amount of CO2 released into the gas headspace above hRBC suspensions compared to RBCs alone", "setting": "RBCs [2]", "value": 16, "unit": "%"}]}]}
